The term EC50 denotes the concentration that produces a half-maximal response. A word on the IC50: it is the concentration that gives 50% inhibition.

Assay [1] has as its system AML-12 hepatocyte cell line. The assay is described as follows: Glutathione assay (total glutathione, GSH-Glo). The format is cell-based, mouse. The settings on record: for EC50: Mus musculus, AML12, AML-12 cells, 24 hours, total glutathione, read-out: GSH EC50 (nM) (Mean ± SD); for GSH EC50 Relative to RTA 402 (fold) (Mean ± SD): benchmark RTA 402. The procedure:
The effect of compound treatment on total glutathione levels was evaluated in the mouse AML-12 hepatocyte cell line. Glutathione—a tripeptide consisting of cysteine, glutamate, and glycine—is the major thiol-containing protein within the cell and regulates cellular redox balance. Glutathione also plays important roles in detoxification, protein glutathionylation, and iron-sulfur cluster biogenesis (Bachhawat and Yadav, 2018). Nrf2 regulates the expression of many genes involved in glutathione synthesis and metabolism, including both subunits of glutamate cysteine ligase (GCL), the enzyme that catalyzes the rate limiting step of glutathione biosynthesis (Thimmulappa et al., 2002). […] The next day, cells were treated with vehicle (DMSO) or test compound (0.03 nM to 1000 nM). Each well received a final concentration of 0.1% DMSO. Cells were incubated at 37° C., 5% CO2 for 24 hours. Total glutathione concentrations were measured using the GSH-Glo Glutathione Assay kit (Promega) according to the manufacturer's instructions. Briefly, a standard curve was prepared by serially diluting the provided glutathione solution. […] After a 30-minute incubation at room temperature, 100 μL of Luciferin detection reagent was added to all sample and standard wells and incubated for 15 minutes. Luminescence was measured using a PHERAstar plate reader. The EC50 value was determined using Excel and GraphPad Prism software. The basal concentration of glutathione was set to 0% and the highest concentration of glutathione produced following treatment with a test compound was set to 100% and a dose-response curve was generated. The dose-response curve was fit using nonlinear regression analysis and used to extrapolate the EC50 value.

Assay [2] has as its system RAW 264.7 cells. The experiment in a line: Nitric oxide suppression assay (IFNγ-induced NO production). Format: cell-based, mouse. The settings on record: for IC50: Mus musculus, RAW264.7, RAW 264.7 cells, 2 h pretreatment, 20 ng/mL interferon gamma 24 h, nitrite by Griess, read-out: NO IC50 (nM) (Mean ± SD); for NO IC50 Relative to RTA 402 (fold) (Mean ± SD): average of ratios from replicate experiments, benchmark RTA 402. The procedure: Tissue Culture. RAW 264.7, a mouse macrophage cell line, was obtained from American Type Culture Collection (Manassas VA) and maintained in the log phase of growth in Roswell Park Memorial Institute Medium 1640 (RPMI 1640) supplemented with 10% heat inactivated fetal bovine serum (FBS) and 1% penicillin-streptomycin. Cells were cultured and maintained in a humidified incubator at 37° C. under 5% CO2. Cells were sub-cultured every 3 days. […] All cell culture supplies were obtained from Life Technologies (Grand Island, NY) and VWR (Radnor, PA). Nitric Oxide Suppression Assay. RAW 264.7 cells were plated 1 day in advance of experimental treatments at a concentration of 30,000 cells per well onto Falcon-96 well clear bottom plates (Corning, NY) in a total volume of 200 μL per well using RPMI 1640 supplemented with 0.5% fetal bovine serum and 1% penicillin-streptomycin. The next day, cells were pretreated with compounds serially diluted from 1000× stocks. All compounds were dissolved in dimethyl sulfoxide (DMSO) at 10 mM stock solutions. Compounds were subsequently diluted in DMSO and RPMI 1640. Each well received a final concentration of 0.1% DMSO. Cells were pretreated for 2 hours and incubation at 37° C., followed by treatment with 20 ng/mL of interferon gamma (R&D Systems, Minneapolis, MN) per well for 24 hours. […] Afterwards, 50 μL of cell culture supernatant was transferred from each well into a new Falcon-96 well clear bottom plate. […] Afterwards, air bubbles were removed using ethanol vapor and absorbance was measured using a Spectramax M2e plate reader with a wavelength set to 525 nm. Viability was assessed using WST-1 cell proliferation reagent from Roche (Basel, Switzerland). After media was removed for the Nitric Oxide suppression assay, 15 μL of WST-1 reagent was added to each well of cells. Plates were briefly mixed on an orbital shaker and the cells were incubated at 37° C. for 30 minutes. Absorbance was measured using a Spectramax M2e plate reader with wavelengths set to 440 nm and 700 nm. For the ability of compounds to suppress the increase in nitric oxide release caused by interferon gamma, the absolute amount of nitrite that was produced in each well was extrapolated from the nitrite standards using a linear regression fit. All values were then normalized to the DMSO-interferon gamma treated wells and plotted as percent nitric oxide. IC50 values were calculated with a dependence on WST1 viability using Excel and/or GraphPad Prism (San Diego, CA).
A general note: The Griess reaction detects nitrite, a stable product of nitric oxide.

For assay [3], the system named is AREc32 reporter cell line (antioxidant response element of rat Gsta2, Nrf2 target gene). The experiment in a line: AREc32 luciferase reporter activation. The format is cell-based, human. Conditions: for AREc32 EC2X Relative to RTA 402 (fold) (Mean ± SD): average of ratios from replicate experiments, benchmark RTA 402; for EC (2-fold): human, Arec32, 19 h, concentration increasing luminescence signal 2-fold above vehicle, nineteen hours, read-out: AREc32 EC2X (nM) (Mean ± SD). Here is the method:
[…] The effect of several compounds disclosed herein on luciferase reporter activation was assessed in the AREc32 reporter cell line (see Table 10 and Table 11). This cell line is derived from human breast carcinoma MCF-7 cells and is stably transfected with a luciferase reporter gene under the transcriptional control of eight copies of the antioxidant response element from the rat Gsta2 gene, an Nrf2 target gene ([…] et al., 1990). […] Twenty-four hours after plating, cells were treated with vehicle (DMSO) or test compounds at concentrations ranging from 0.03 to 1000 nM for nineteen hours. Media was removed and 100 μL of 1:1 mixture of the One-Glo Luciferase assay reagent and culture medium was added to each well. After incubation for 5 min at room temperature, the luminescence signal was measured on a PHERAstar plate reader. The EC2X value was determined using Excel and GraphPad Prism software. The fold increase in luminescence signal for cells treated with each concentration of compound relative to cells treated with vehicle was determined and a dose-response curve was generated. The dose-response curve was fit using nonlinear regression analysis and used to extrapolate the EC2X value.
(In general: In a reporter assay the amount or activity of a reporter protein is the signal.)

Turning to `CC1(C)CC[C@]2(c3nc(CCN)no3)CC[C@]3(C)[C@H](C(=O)C=C4[C@@]5(C)C=C(C#N)C(=O)C(C)(C)[C@@H]5CC[C@]43C)[C@@H]2C1` [Compound T16], in assay [1], the EC50 was found to be 0.58 ± 0.04 nM and the “GSH EC50 Relative to RTA 402 (fold) (Mean ± SD)” value is recorded as 0.46 ± 0.09 fold. Moreover, in assay [2], the IC50 came to 1.26 ± 0.12 nM and the “NO IC50 Relative to RTA 402 (fold) (Mean ± SD)” value was determined as 0.94 ± 0.19 fold. Also, in assay [3], the “AREc32 EC2X Relative to RTA 402 (fold) (Mean ± SD)” value is 0.30 ± 0.00 fold and the EC (2-fold) came out at 3.56 ± 0.31 nM.

For the compound `Cc1nc([C@]23CCC(C)(C)C[C@H]2[C@H]2C(=O)C=C4[C@@]5(C)C=C(C#N)C(=O)C(C)(C)[C@@H]5CC[C@@]4(C)[C@]2(C)CC3)no1` [Compound T20], in assay [1], the EC50 was determined as 1.66 ± 0.66 nM and the “GSH EC50 Relative to RTA 402 (fold) (Mean ± SD)” value worked out at 0.96 ± 0.15 fold. Besides, in assay [2], the IC50 was 3.79 nM and the “NO IC50 Relative to RTA 402 (fold) (Mean ± SD)” value amounted to 1.30 ± 0.26 fold. In addition, in assay [3], the “AREc32 EC2X Relative to RTA 402 (fold) (Mean ± SD)” value was found to be 1.50 ± 0.18 fold and the EC (2-fold) was found to be 21.5 ± 2.85 nM.

In the case of `Cn1nnc([C@]23CCC(C)(C)C[C@H]2[C@H]2C(=O)C=C4[C@@]5(C)C=C(C#N)C(=O)C(C)(C)[C@@H]5CC[C@@]4(C)[C@]2(C)CC3)n1` [Compound T21], in assay [1], the EC50 was determined as 3.18 ± 2.22 nM and the “GSH EC50 Relative to RTA 402 (fold) (Mean ± SD)” value turned out to be 0.95 ± 0.34 fold. For the same compound, in assay [2], the IC50 stood at 1.89 ± 0.67 nM and the “NO IC50 Relative to RTA 402 (fold) (Mean ± SD)” value was 0.76 ± 0.36 fold. In assay [3], the “AREc32 EC2X Relative to RTA 402 (fold) (Mean ± SD)” value is 1.67 ± 0.15 fold and the EC (2-fold) was determined as 16.2 ± 4.2 nM.

`CC1(C)CC[C@]2(c3nc(C(F)(F)F)no3)CC[C@]3(C)[C@H](C(=O)C=C4[C@@]5(C)C=C(C#N)C(=O)C(C)(C)[C@@H]5CC[C@]43C)[C@@H]2C1` [Compound T22]: in assay [1], the EC50 was determined as 17.6 ± 0.59 nM and the “GSH EC50 Relative to RTA 402 (fold) (Mean ± SD)” value is on record as 8.72 ± 1.98 fold. Moreover, in assay [2], the IC50 was 23.9 nM and the “NO IC50 Relative to RTA 402 (fold) (Mean ± SD)” value was 7.71 ± 2.33 fold. Moreover, in assay [3], the “AREc32 EC2X Relative to RTA 402 (fold) (Mean ± SD)” value is 3.45 ± 0.69 fold and the EC (2-fold) is 54.6 ± 8.83 nM.

`CCc1noc([C@]23CCC(C)(C)C[C@H]2[C@H]2C(=O)C=C4[C@@]5(C)C=C(C#N)C(=O)C(C)(C)[C@@H]5CC[C@@]4(C)[C@]2(C)CC3)n1` [Compound T23]: in assay [1], the EC50 stood at 3.26 ± 0.51 nM and the “GSH EC50 Relative to RTA 402 (fold) (Mean ± SD)” value is 2.05 ± 0.44 fold. Moreover, in assay [2], the IC50 turned out to be 4.85 nM and the “NO IC50 Relative to RTA 402 (fold) (Mean ± SD)” value was 1.93 ± 0.54 fold. In addition, in assay [3], the “AREc32 EC2X Relative to RTA 402 (fold) (Mean ± SD)” value turned out to be 1.43 ± 0.26 fold and the EC (2-fold) came to 20.2 ± 2.51 nM. Moreover, the “AREc32 Relative to CC in Same Experiment (Mean ± SD)” value in assay [3] (comparison compound CC2, average of ratios from experiments with direct comparisons) amounted to 2.41 ± 0.42.

Values taken from patent US12344631B2, “C17 polar-substituted heteroaromatic synthetic triterpenoids and methods of use thereof” (REATA PHARMACEUTICALS, INC., priority 2019, dated 2025).
